Measurements taken from patent US20240228490A1, “HETEROCYCLIC DERIVATIVE INHIBITOR AND PREPARATION METHOD THEREFOR AND APPLICATION THEREOF” (Shanghai Hansoh Biomedical Co., Ltd., priority 2021, published 2024).
Where two headings read alike, the source gives them in different places.

Legend:
[1] = PK part of PK/PD study in MDA-MB-436 subcutaneous xenograft model: plasma and tumor concentration; assay type: in vivo, BALB/c nude mice; details: female, BALB/c nude, mouse, single oral 0.3 mg/kg
Source text: • a. […] Cells were passaged once every three days. […] The resulting suspension was placed in an ice box for later use.
• a. […] During the inoculation, the cell suspension was mixed well. […] The nude mouse was bound with the left hand. […] Inoculation started after 30 seconds. • d.
• a. Grouping: According to the growth of the tumor, when the tumor grew to a volume of 300-500 mm^3, tumor-bearing mice were selected according to the experimental design and randomly grouped (3 mice per each time point) to start the PK/PD test. • b. Fasting: All tumor-bearing mice were fasted (with free access to water) overnight (fasting >8 hours) before the administration. • c. Administration: Except for the blank control group, a single oral administration was carried out according to the time of the experimental design, and the administration volume was 10 mL/kg. • d. Sample collection: The mice were euthanized by CO2 asphyxiation according to the time of the experimental design, and the samples were collected. One plasma sample and three tumor tissue samples were collected from each animal.
Plasma collection: After the mouse was euthanized, blood was collected from the heart. The collected blood was added to a centrifuge tube containing EDTA-K2. The tube was manually inverted 3 to 4 times, placed on ice, and centrifuged at 8000 rpm at 4° C. for 5 minutes. 100 μL of the centrifuged plasma was transferred to a new labeled centrifuge tube. One aliquot of plasma was quickly freezed on dry ice, and stored in a refrigerator at −80±10° C. for PK test.
Tumor tissue collection: After the blood collection, the tumor tissue was collected. The collected tumor tissue was divided into 3 aliquots (˜0.1 g each), placed into labeled 2 mL centrifuge tubes, and stored in a refrigerator at −80±10° C. for PK or PD test.
a. Sample Process: • 1) 4 parts by weight of 20% methanol in water was added to 1 part by weight of the tumor tissue sample, and homogenized at 40 Hz for 400 seconds.

[2] = Bidirectional permeability through Caco-2 cell model; details: human
Method: 100 μL of transport buffer (HBSS containing 10 μM test compound, 0.5% BSA, and 0.5% DMSO) was added to the administration end of A to B • b. 300 μL of transport buffer (HBSS containing 0.5% BSA) was added to the receiving end of A to B • c. 300 μL of transport buffer (HBSS containing 10 μM test compound, 0.5% BSA, and 0.5% DMSO) was added to the administration end of B to A • d. 100 μL of transport buffer (HBSS containing 0.5% BSA) was added to the receiving end of B to A • e. Incubation for 2 hours • d. Samples were taken, processed and detected by mass spectrometry.
• Instrument: liquid chromatography; • Chromatographic column: Waters XSelect HSS T3 C18 (2.1*50 mm, 2.5 μm); • Mobile phase: phase A: water containing 0.1% formic acid; phase B: acetonitrile containing 0.1% formic acid.
• Instrument: API4000 liquid chromatography-mass spectrometer; • Ion source: electrospray ionization source (ESI); • Detection method: positive ion detection; • Scan mode: multiple reaction monitoring (MRM) mode.

PARP1 enzyme = PARP1 enzyme (Homo sapiens (Human), UniProt P09874); assay: Inhibitory activity on PARP1 enzyme (chemiluminescence); assay type: biochemical
Chain of PARP1 enzyme (P09874 whole entry): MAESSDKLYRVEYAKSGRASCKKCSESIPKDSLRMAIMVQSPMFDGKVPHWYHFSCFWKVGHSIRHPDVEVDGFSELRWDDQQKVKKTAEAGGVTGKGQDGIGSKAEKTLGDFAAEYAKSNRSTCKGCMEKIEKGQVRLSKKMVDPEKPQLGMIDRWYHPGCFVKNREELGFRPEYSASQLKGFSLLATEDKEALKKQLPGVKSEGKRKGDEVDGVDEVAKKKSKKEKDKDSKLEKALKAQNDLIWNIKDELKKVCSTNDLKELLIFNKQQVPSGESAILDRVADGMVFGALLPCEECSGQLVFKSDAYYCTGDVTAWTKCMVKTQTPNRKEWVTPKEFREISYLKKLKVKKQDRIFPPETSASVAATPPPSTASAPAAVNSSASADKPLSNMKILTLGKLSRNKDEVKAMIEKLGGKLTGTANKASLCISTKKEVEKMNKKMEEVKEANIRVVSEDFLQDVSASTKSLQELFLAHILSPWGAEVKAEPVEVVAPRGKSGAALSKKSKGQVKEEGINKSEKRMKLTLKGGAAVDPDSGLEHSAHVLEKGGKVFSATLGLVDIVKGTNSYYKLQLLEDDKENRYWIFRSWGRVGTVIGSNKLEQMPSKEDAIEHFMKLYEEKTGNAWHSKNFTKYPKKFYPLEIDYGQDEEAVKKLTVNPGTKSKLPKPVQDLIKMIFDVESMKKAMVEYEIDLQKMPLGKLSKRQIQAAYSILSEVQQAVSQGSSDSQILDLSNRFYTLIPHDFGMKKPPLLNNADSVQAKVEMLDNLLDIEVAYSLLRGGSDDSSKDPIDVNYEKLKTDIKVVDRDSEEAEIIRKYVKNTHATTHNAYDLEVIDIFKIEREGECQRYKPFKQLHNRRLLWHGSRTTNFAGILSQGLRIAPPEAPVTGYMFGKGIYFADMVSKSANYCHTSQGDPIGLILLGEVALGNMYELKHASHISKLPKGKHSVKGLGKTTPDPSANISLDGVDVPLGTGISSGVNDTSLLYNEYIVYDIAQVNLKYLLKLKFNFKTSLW
Method: The inhibitory activity of the compounds on PARP1 enzyme was determined by the chemiluminescence method in the experiment. The experiment was carried out in a 384-well plate. Coating histones in a 384-well plate: 5×histone solution was diluted 5 folds with PBS, added to a 384-well ELISA plate (25 μL per well), and incubated at 4° C. overnight. […] A mixture of PARP reaction biotin-labeled substrate, activated DNA, 10×PARP buffer and water was added (12.5 μL per well). Compound solutions with different concentrations were formulated using the experimental buffer (10% DMSO aqueous solution containing 1.25 mM DTT). The final detection concentration started from 100 nM, with 3-fold dilution and 8 concentrations. The compound solutions were added to the reaction wells of the 384-well plate (2.5 μL per well). 2.5 μL of 10% DMSO aqueous solution containing 1.25 mM DTT was added to the positive control well and blank well (2.5 μL per well). […] The plate was centrifuged at 1000 rpm for 1 minute, and reacted at room temperature for 60 minutes. […] Streptavidin-HRP solution diluted 50 folds with Blocking buffer 3 was added (25 μL per well), and the plate was incubated at room temperature for 30 minutes. […] The luminescence reaction solution obtained by mixing ECL substrate A and ELISA ECL substrate B (1:1) was added (50 μL per well) for reaction. The chemiluminescence values were measured immediately with a BioTek Synergy H1 or Envision instrument.
The chemiluminescence values were measured with a BioTek Synergy H1 or Envision instrument. The inhibition rate was calculated, and the concentration and inhibition rate were fitted to a nonlinear regression curve using Graphpad Prism software to obtain the IC50 value.

[3] = system: BRCA2 Knockout DLD-1 cells; assay: Inhibition of proliferation of BRCA2 Knockout DLD-1 cells (CellTiter-Glo); assay type: cell-based; details: Homo sapiens, about 144 hours incubation
Method: BRCA2 Knockout DLD-1 cells were cultured using RPMI1640 culture medium containing 10% FBS to an appropriate cell density. The cells were collected, and adjusted to an appropriate cell concentration using the complete culture medium. The cell suspension was spread on a 96-well plate (90 μL per well), and placed in a 37° C., 5% CO2 incubator overnight. Compound solutions of different concentrations were formulated using DMSO and culture medium, and vehicle control was set up. The compound solutions were added to the 96-well plate (10 μL per well), and the plate was incubated in a 37° C., 5% CO2 incubator for about 144 hours. CellTiter-Glo solution was added, and the plate was shaken to mix evenly, and incubated in the dark for 10 to 30 minutes. The values were measured with a Synergy H1 or Envision microplate reader.
The inhibition rate was calculated using the luminescence signal value. The concentration and inhibition rate were fitted to a nonlinear regression curve using Graphpad Prism software to obtain the IC50 value.

[4] = plasma, read-out: Mean plasma concentration
[5] = tumor tissue, read-out: Mean tumor tissue concentration

Row | SMILES | IC50 (PARP1 enzyme) | IC50 [3] | further results
1 | CCc1cc2ncc(CN3CCN(c4ccc(C(=O)NC)nc4)CC3)cc2[nH]c1=O [AZD5305, reference compound] |  |  | concentration at 1 h [1, 4]: 1460 ng/mL; concentration at 2 h [1, 4]: 1370 ng/mL; concentration at 4 h [1, 4]: 1120 ng/mL; concentration at 6 h [1, 4]: 713 ng/mL; concentration at 8 h [1, 4]: 584 ng/mL; concentration at 16 h [1, 4]: 252 ng/mL; concentration at 24 h [1, 4]: 102 ng/mL; concentration at 32 h [1, 4]: 41 ng/mL; concentration at 48 h [1, 4]: 10 ng/mL; concentration at 72 h [1, 4]: 6 ng/mL; concentration at 1 h [1, 5]: 41 ng/g; concentration at 2 h [1, 5]: 100 ng/g; concentration at 4 h [1, 5]: 131 ng/g; concentration at 6 h [1, 5]: 117 ng/g; concentration at 8 h [1, 5]: 95 ng/g; concentration at 16 h [1, 5]: 94 ng/g; concentration at 24 h [1, 5]: 61 ng/g; concentration at 32 h [1, 5]: 59 ng/g; concentration at 48 h [1, 5]: 44 ng/g; concentration at 72 h [1, 5]: 31 ng/g
2 | CCc1cc2ncc(CN3CCC(c4ccc(C(=O)NC)nc4)CC3)cc2[nH]c1=O [Example 2, 5-(1-((7-Ethyl-6-oxo-5,6-dihydro-1,5-naphthyridin-3-yl)methyl)piperidin-4-yl)-N-methylpicolinamide] |  |  | Papp A→B at 2 h, 10 μM [2]: 9.42 ×10⁻⁶ cm/s; Papp B→A at 2 h, 10 μM [2]: 13.5 ×10⁻⁶ cm/s
3 | CCc1cc2ncc(CN3CC=C(c4ccc(C(=O)NOC)nc4)CC3)cc2[nH]c1=O [Example 30, 1′-((7-Ethyl-6-oxo-5,6-dihydro-1,5-naphthyridin-3-yl)methyl)-N-methoxy-1′,2′,3′,6′-tetra hydro-[3,4′-bipyridine]-6-carboxamide] | 1.4 nM | 3.2 nM | 
4 | CCc1cc2c(C#N)cc(CN3CC=C(c4ccc(C(=O)NC)nc4)CC3)cc2[nH]c1=O [Example 42, 1′-((5-Cyano-3-ethyl-2-oxo-1,2-dihydroquinolin-7-yl)methyl)-N-methyl-1′,2′,3′,6′-tetrahydro-[3,4′-bipyridine]-6-carboxamide] | 1.3 nM | 3 nM | 
5 | CCc1cc2ncc(CN3CC=C(c4ncc(C)n4C)CC3)cc2[nH]c1=O [Example 53, 7-((4-(1,5-Dimethyl-1H-imidazol-2-yl)-3,6-dihydropyridin-1(2H)-yl)methyl)-3-ethyl-1,5-naphthyridin-2(1H)-one] | 0.96 nM | 7.5 nM | 
6 | CCc1cc2ncc(CN3CC=C(c4ccc(C(=O)NC)nc4Cl)CC3)cc2[nH]c1=O [Example 56, 2-Chloro-1′-((7-ethyl-6-oxo-5,6-dihydro-1,5-naphthyridin-3-yl)methyl)-N-methyl-1′,2′,3′,6′-tetrahydro-[3,4′-bipyridine]-6-carboxamide] | 1.3 nM | 1 nM | 
7 | CCc1cc2ncc(CN3CC=C(c4ccc(C(=O)NCC#N)nc4)CC3)cc2[nH]c1=O [Example 58, N-(Cyanomethyl)-1′-((7-ethyl-6-oxo-5,6-dihydro-1,5-naphthyridin-3-yl)methyl)-1′,2′,3′,6′-tetrahydro-[3,4′-bipyridine]-6-carboxamide] | 0.9 nM | 2.4 nM | 
8 | CCc1cc2ncc(CN3CC=C(c4ccc(C(=O)NC5(C#N)CC5)nc4)CC3)cc2[nH]c1=O [Example 59, N-(1-Cyanocyclopropyl)-1′-((7-ethyl-6-oxo-5,6-dihydro-1,5-naphthyridin-3-yl)methyl)-1′,2′,3′,6′-tetrahydro-[3,4′-bipyridine]-6-carboxamide] | 0.8 nM | 2.7 nM | 
9 | CCc1cc2ncc(CN3CCC(c4ccc(C(=O)NC)nc4)=C(F)C3)cc2[nH]c1=O [Example 81, 1′-((7-Ethyl-6-oxo-5,6-dihydro-1,5-naphthyridin-3-yl)methyl)-5′-fluoro-N-methyl-1′,2′,3′,6′-tetrahydro-[3,4′-bipyridine]-6-carboxamide] | 0.9 nM | 1.5 nM | 
10 | CCc1cc2ncc(CN3CC=C(c4ccc(C(=O)NCC(F)(F)F)nc4)CC3)cc2[nH]c1=O [Example 83, 1′-((7-Ethyl-6-oxo-5,6-dihydro-1,5-naphthyridin-3-yl)methyl)-N-(2,2,2-trifluoroethyl)-1′,2′,3′,6′-tetrahydro-[3,4′-bipyridine]-6-carboxamide] | 1.4 nM | 1.4 nM | 
11 | CNC(=O)c1ccc(C2=CCN(Cc3cnc4cc(C(F)(F)F)c(=O)[nH]c4c3)CC2)cn1 [Example 84, N-Methyl-1′-((6-oxo-7-(trifluoromethyl)-5,6-dihydro-1,5-naphthyridin-3-yl)methyl)-1′,2′,3′,6′-tetrahydro-[3,4′-bipyridine]-6-carboxamide] | 2.7 nM | 5.1 nM | 
12 | CCc1cc2ncc(C(C)N3CC=C(c4ccc(C(=O)NC)nc4)CC3)cc2[nH]c1=O (stereo not drawn) [Example 93, 1′-(1-(7-Ethyl-6-oxo-5,6-dihydro-1,5-naphthyridin-3-yl)ethyl)-N-methyl-1′,2′,3′,6′-tetrahydro-[3,4′-bipyridine]-6-carboxamide] | 2.1 nM | 3.6 nM | 
13 | CCc1cc2ncc(CN3CCN(c4cnc5c(NC)ncc(F)c5c4)CC3)cc2[nH]c1=O [Example 94, 3-Ethyl-7-((4-(5-fluoro-8-(methylamino)-1,7-naphthyridin-3-yl)piperazin-1-yl)methyl)-1,5-naphthyridin-2(1H)-one] |  | 8.4 nM | 
14 | [2H]C([2H])([2H])Nc1nccc2cc(N3CCN(Cc4cnc5cc(CC)c(=O)[nH]c5c4)CC3)cnc12 [Example 98, 3-Ethyl-7-((4-(8-((methyl-d3)amino)-1,7-naphthyridin-3-yl)piperazin-1-yl)methyl)-1,5-naphthyridin-2(1H)-one] |  | 1.7 nM | 
15 | CCc1cc2ncc(CN3CC=C(c4cnc5c(NC)nccc5c4)CC3)cc2[nH]c1=O [Example 102, 3-Ethyl-7-((4-(8-(methylamino)-1,7-naphthyridin-3-yl)-3,6-dihydropyridin-1(2H)-yl)methyl)-1,5-naphthyridin-2(1H)-one] |  | 5.2 nM | 
